Key:
[1] = biological target: T1, Progesterone receptor (Homo sapiens, UniProt P06401); assay: Activity at progesterone receptor assessed as alkaline phosphatase activity in human T47D cells; type: cell-based
T1 sequence (P06401 whole entry): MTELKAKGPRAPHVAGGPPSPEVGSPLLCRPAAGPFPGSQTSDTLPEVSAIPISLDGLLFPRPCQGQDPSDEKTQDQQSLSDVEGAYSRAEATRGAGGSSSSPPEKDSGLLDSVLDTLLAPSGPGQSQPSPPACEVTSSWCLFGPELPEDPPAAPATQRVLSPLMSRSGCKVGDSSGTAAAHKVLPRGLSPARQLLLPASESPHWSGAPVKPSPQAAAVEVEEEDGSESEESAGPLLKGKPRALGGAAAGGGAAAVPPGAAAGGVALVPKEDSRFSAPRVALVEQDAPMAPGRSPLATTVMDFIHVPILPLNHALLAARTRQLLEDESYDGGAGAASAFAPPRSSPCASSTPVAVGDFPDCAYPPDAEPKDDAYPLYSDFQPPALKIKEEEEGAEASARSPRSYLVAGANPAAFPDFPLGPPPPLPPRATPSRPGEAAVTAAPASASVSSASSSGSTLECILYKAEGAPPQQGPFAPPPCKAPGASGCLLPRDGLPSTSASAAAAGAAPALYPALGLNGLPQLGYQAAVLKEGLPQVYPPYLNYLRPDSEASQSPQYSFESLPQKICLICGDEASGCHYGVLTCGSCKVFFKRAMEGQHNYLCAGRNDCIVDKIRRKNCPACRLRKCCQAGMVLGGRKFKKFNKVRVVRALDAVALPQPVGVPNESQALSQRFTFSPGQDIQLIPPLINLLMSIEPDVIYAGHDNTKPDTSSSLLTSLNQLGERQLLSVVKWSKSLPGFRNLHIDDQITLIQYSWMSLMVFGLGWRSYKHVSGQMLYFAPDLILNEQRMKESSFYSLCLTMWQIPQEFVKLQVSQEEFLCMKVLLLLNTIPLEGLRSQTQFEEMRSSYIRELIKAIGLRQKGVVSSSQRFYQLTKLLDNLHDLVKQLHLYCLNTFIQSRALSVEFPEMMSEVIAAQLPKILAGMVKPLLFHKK

[2] = biological target: T1, Progesterone receptor; assay: Antagonist activity at progesterone receptor assessed as progesterone-induced alkaline phosphatase activity in human T47D cells; type: functional, cell-based
[3] = biological target: T2, Glucocorticoid receptor (Homo sapiens, UniProt P04150); assay: Antagonist activity at glucocorticoid receptor by Gal4-DNA binding domain-hormone receptor LBD one-hybrid assay
T2 sequence (P04150 whole entry): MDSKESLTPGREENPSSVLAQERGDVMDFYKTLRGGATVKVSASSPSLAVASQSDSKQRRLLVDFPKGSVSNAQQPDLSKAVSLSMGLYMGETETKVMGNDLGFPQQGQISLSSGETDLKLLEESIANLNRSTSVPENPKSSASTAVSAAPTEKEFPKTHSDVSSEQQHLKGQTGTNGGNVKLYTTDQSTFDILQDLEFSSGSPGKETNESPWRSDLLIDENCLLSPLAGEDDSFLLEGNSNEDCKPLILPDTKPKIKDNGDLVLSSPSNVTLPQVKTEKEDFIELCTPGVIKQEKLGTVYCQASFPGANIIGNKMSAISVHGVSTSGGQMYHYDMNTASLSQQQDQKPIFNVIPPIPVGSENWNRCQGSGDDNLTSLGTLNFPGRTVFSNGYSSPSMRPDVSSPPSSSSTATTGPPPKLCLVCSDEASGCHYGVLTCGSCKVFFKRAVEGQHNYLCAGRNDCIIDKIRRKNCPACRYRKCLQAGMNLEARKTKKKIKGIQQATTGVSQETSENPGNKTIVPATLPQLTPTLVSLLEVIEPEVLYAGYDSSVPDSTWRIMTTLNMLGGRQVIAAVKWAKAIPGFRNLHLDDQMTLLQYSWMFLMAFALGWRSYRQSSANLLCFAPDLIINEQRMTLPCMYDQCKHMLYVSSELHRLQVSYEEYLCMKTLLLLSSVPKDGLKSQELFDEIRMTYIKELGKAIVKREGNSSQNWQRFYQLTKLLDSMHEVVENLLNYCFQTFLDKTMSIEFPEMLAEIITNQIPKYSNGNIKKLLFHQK

[4] = biological target: T1, Progesterone receptor; assay: Displacement of [3H]progesterone from progesterone receptor in human T47D cells; type: cell-based
[5] = biological target: T3, Androgen receptor (Homo sapiens, UniProt P10275); assay: Antagonist activity at androgen receptor by Gal4-DNA binding domain-hormone receptor LBD one-hybrid assay
T3 sequence (P10275 whole entry): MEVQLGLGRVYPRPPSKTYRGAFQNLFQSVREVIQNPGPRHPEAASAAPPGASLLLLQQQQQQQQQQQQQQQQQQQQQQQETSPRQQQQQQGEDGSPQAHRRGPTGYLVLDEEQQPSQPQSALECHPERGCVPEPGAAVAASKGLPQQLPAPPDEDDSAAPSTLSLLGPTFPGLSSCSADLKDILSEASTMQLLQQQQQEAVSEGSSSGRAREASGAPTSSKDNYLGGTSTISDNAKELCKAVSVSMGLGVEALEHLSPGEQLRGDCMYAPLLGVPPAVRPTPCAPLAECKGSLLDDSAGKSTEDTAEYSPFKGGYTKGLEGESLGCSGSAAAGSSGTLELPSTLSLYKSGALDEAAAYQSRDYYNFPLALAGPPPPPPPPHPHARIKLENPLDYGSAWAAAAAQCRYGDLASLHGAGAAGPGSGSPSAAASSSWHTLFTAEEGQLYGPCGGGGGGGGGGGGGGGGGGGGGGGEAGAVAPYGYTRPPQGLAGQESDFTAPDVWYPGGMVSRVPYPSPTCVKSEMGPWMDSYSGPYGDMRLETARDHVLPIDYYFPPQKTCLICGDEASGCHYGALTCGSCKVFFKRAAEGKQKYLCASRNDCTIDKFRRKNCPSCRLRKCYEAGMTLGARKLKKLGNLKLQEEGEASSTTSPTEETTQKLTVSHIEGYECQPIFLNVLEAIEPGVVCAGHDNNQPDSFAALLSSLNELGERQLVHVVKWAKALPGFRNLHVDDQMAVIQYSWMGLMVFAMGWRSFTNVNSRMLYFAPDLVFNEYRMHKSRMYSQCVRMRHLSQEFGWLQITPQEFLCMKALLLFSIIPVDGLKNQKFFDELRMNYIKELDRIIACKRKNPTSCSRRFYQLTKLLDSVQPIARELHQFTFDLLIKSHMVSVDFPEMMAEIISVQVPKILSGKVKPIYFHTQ

[6] = biological target: T4, Mineralocorticoid receptor (Homo sapiens, UniProt P08235); assay: Antagonist activity at mineralocorticoid receptor by Gal4-DNA binding domain-hormone receptor LBD one-hybrid assay
T4 sequence (P08235 whole entry): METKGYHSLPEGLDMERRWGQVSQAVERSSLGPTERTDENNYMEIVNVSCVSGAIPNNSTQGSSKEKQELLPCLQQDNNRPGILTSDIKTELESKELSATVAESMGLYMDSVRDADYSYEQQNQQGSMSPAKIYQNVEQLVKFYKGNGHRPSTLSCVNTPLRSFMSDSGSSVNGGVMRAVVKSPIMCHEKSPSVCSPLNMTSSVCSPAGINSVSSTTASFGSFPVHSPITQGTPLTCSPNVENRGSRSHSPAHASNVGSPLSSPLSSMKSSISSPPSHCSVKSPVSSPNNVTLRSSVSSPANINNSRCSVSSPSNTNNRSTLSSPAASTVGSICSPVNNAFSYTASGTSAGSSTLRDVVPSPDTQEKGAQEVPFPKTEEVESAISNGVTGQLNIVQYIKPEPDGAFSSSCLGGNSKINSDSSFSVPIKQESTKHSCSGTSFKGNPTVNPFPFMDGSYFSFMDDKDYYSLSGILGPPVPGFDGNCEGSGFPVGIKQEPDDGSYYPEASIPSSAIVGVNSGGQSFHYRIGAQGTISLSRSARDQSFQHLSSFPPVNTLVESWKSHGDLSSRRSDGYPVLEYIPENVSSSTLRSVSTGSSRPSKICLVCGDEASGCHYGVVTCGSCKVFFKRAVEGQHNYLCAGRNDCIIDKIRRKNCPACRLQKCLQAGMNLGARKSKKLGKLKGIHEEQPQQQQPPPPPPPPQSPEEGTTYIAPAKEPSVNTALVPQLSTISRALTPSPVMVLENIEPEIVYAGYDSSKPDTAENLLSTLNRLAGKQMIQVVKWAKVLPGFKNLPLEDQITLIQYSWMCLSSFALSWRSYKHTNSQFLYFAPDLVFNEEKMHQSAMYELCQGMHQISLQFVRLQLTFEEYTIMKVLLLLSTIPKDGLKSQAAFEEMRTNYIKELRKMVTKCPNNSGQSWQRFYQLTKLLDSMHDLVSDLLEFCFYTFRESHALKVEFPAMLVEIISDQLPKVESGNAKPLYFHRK

[7] = biological target: T5, Estrogen receptor (Homo sapiens, UniProt P03372); assay: Antagonist activity at estrogen receptor by Gal4-DNA binding domain-hormone receptor LBD one-hybrid assay
T5 sequence (P03372 whole entry): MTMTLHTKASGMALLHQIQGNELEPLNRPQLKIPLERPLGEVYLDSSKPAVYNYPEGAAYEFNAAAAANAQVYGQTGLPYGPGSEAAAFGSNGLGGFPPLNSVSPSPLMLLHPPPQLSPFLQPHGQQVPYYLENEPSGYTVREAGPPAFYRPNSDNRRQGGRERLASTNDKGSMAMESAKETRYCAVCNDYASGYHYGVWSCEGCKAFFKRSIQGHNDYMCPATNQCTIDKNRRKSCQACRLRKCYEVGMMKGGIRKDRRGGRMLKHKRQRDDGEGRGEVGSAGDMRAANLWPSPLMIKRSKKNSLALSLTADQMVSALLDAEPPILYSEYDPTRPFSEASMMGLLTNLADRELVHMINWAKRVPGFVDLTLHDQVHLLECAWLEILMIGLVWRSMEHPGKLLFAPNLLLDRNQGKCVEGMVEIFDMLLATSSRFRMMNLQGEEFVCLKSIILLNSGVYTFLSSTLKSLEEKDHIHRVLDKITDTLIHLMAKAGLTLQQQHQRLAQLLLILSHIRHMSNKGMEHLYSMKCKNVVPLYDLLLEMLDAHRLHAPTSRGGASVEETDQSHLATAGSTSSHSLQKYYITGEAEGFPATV

SMILES | EC50 [1] [µM] | IC50 [2] [µM] | IC50 [4] [µM] | also measured
CC1OCC(=O)Nc2ccc(-c3ccc(C#N)n3C)cc21 (stereo not given) | 0.138 | – | – | –
CC1(c2ccsc2)OCC(=O)Nc2ccc(-c3ccc(C#N)[nH]3)cc21 (stereo not given) | 0.0011 | – | – | –
CCC1(c2cccs2)OCC(=O)N(C)c2ccc(-c3ccc(C#N)n3C)cc21 (stereo not given) | – | 0.12 | – | –
Cn1c(C#N)ccc1-c1ccc2c(c1)C(c1ccco1)(c1ccco1)OCC(=O)N2 | – | 0.0066 | 0.0284 | IC50 [3]: > 3 µM; IC50 [5]: 0.74 µM; IC50 [6]: 2.8 µM; IC50 [7]: > 10 µM
Cn1c(C#N)ccc1-c1ccc2c(c1)C(c1ccccc1)(c1ccccc1)OCC(=O)N2 | – | 0.0143 | 0.036 | –
Cn1c(C#N)ccc1-c1ccc2c(c1)C(C)(c1cccs1)OCC(=O)N2 (stereo not given) | 0.0008 | – | 0.0024 | –
CC(C)C1(c2cccs2)OCC(=O)Nc2ccc(-c3ccc(C#N)n3C)cc21 (stereo not given) | – | 0.0365 | – | –
Cn1c(C#N)ccc1-c1ccc2c(c1)C(C)(c1ccco1)OCC(=O)N2 (stereo not given) | 0.0004 | – | – | IC50 [3]: 0.12 µM; IC50 [5]: 0.215 µM; IC50 [6]: 0.155 µM; IC50 [7]: > 10 µM
Cn1c(C#N)ccc1-c1ccc2c(c1)C(c1cccc(Cl)c1)(c1cccc(Cl)c1)OCC(=O)N2 | – | 0.175 | – | –
CCCC1(c2cccs2)OCC(=O)Nc2ccc(-c3ccc(C#N)n3C)cc21 (stereo not given) | – | 0.0566 | – | –
CC1OCC(=O)Nc2ccc(-c3ccc(C#N)[nH]3)cc21 (stereo not given) | 0.246 | – | – | –
CN1C(=O)COC(c2ccccc2)(c2ccccc2)c2cc(-c3ccc(C#N)n3C)ccc21 | – | 0.5 | – | –
Cn1c(C#N)ccc1-c1ccc2c(c1)C(C)(C)OCC(=O)N2 | 0.0033 | – | – | –
CN1C(=O)COC(C)(c2cccs2)c2cc(-c3ccc(C#N)n3C)ccc21 (stereo not given) | 0.0375 | – | – | –
N#Cc1ccc(-c2ccc3c(c2)C2(CCCCC2)OCC(=O)N3)[nH]1 | 0.0305 | – | – | –
CC1(c2cccs2)OCC(=O)Nc2ccc(-c3ccc(C#N)[nH]3)cc21 (stereo not given) | 0.0007 | – | 0.0038 | –
C[C@@]1(c2ccsc2)OCC(=O)Nc2ccc(-c3ccc(C#N)[nH]3)cc21 | 0.0005 | – | – | –
Cn1c(C#N)ccc1-c1ccc2c(c1)C(c1ccc(Cl)s1)(c1ccc(Cl)s1)OCC(=O)N2 | – | 0.197 | – | –
Cn1c(C#N)ccc1-c1ccc2c(c1)C(C)(c1ccsc1)OCC(=O)N2 (stereo not given) | 0.0008 | – | 0.0034 | IC50 [3]: 0.127 µM; IC50 [5]: 0.325 µM; IC50 [6]: 0.44 µM; IC50 [7]: > 10 µM
Cn1c(C#N)ccc1-c1ccc2c(c1)C(c1cccs1)(c1cccs1)OCC(=O)N2 | – | – | 0.06 | IC50 [3]: > 3 µM; IC50 [5]: 0.775 µM; IC50 [6]: 2.3 µM; IC50 [7]: > 10 µM
CCC1(c2cccs2)OCC(=O)Nc2ccc(-c3ccc(C#N)n3C)cc21 (stereo not given) | – | – | 0.075 | –
C[C@]1(c2ccsc2)OCC(=O)Nc2ccc(-c3ccc(C#N)[nH]3)cc21 | 0.11 | – | – | –
CC1(C)OCC(=O)Nc2ccc(-c3ccc(C#N)[nH]3)cc21 | 0.0033 | – | 0.0107 | –

From ChEMBL document CHEMBL1144156 (Bioorg Med Chem Lett, 2008)
